From patent US9868977B2, “Red-shifted luciferins and methods of using same” (PROMEGA CORPORATION, priority 2013, dated 2018)

Columns and labels:
Type in all cases: biochemical
[1] = tested on: Aminopeptidase; experiment: Multiplexing of Leu-luciferin and PBI-5044 with filtered luminescence; details: 20 uM Leu-Luciferin/20 uM PBI-5044; 630 long pass and 525 short pass filters
Procedure: To a lyophilized vial of luciferin detection reagent (Promega; V859A), 10 ml of a solution of 100 mM HEPES pH 7.5/10 mM MgSO4 was added (LDR) and allowed to equilibrate for 30 minutes at room temperature.
Aminopeptidase was diluted to 0.01 u/ml into a solution containing 100 mM HEPES pH 7.5 and 0.1% Prionex. The following solutions were then prepared in the aminopeptidase dilution: • 1. 20 uM Leu-Luciferin, • 2. 20 uM PBI-5044, • 3. 20 uM Leu-Luciferin/20 uM PBI-5044
In triplicate, 50 ul of each of the above mixtures (1-3) was added to 50 ul of LDR and incubate for 15 minutes. Luminescence was measured on a GloMax® 96 luminometer equipped with a 630 long pass filter (Edmond Optics 253253) and a 525 short pass filter (Edmond Optics 84694).

[2] = tested on: Leu-aminopeptidase; experiment: Titration of Leu-aminopeptidase with pro-substrate and luciferin detection reagent; details: pro-substrate 20, 2 or 0.2 uM; Leu-aminopeptidase serially diluted; luminescence every 5 min for 90 min
Procedure: To a lyophilized vial of luciferin detection reagent (Promega; V859A), 10 ml of a solution of 100 mM HEPES pH 7.5/10 mM MgSO4 was added and allowed to equilibrate for 30 minutes at room temperature.
A 20 uM solution of Leu-luciferin and a 20 uM solution of PBI-5044 were prepared in a solution of 100 mM HEPES/0.1% Prionex. The 20 uM solution of PBI-5044 was then serially diluted in the HEPES/Prionex solution to 2 uM and 0.2 uM solutions.
1 U/ml Leu-aminopeptidase (Sigma) was serially diluted (FIG. 1) into each of the luciferin dilutions (20 uM Leu-luciferin, 20 uM PBI-5044, 2 uM PBI-5044 or 0.2 uM PBI-5044). For example, 50 ul 1 U/ml Leu-aminopeptidase was added to 450 ul luciferin dilution (final concentration of Leu-aminopeptidase was 0.1 U/ml). Leu-aminopeptidase was then serially diluted by adding 150 ul Leu-aminopeptidase solution to 350 ul of each prepared luciferin derivative.
In triplicate, 50 ul of each serially diluted Leu-aminopeptidase/luciferin sample was added to a well of a white, 96-well assay plate (Costar 3355), and 50 ul of the equilibrated luciferin detection reagent added to each sample. Luminescence was detected every 5 minutes for 90 minutes on a GloMax® Multi luminometer (Promega) at room temperature.

[3] = tested on: esterase; experiment: Effect of esterase on bioluminescence of ester pro-substrate; details: serial dilutions; luciferin detection reagent with esterase, with or without UltraGlo luciferase
Procedure: Reconstitution buffer with esterase (10 ml; Promega Cat. No. V144A) and luciferin detection reagent (Promega; V859A) were mixed and incubated at room temperature for 30 minutes (“Luciferin Detection Reagent”). UltraGlo® luciferase (210 ul of 5.7 mg/ml; Promega) was then added to 3 mls of the luciferin detection reagent.
Serial dilutions of PBI-5045 (isonaphtholuciferin methyl ester) were made in a solution of 100 mM HEPES/10 mM MgSO4. 50 ul of each serially diluted PBI-5045 was then added to a well of a white, 96-well assay plate (n=6). Then, either 50 ul luciferin detection reagent or luciferin detection reagent with UltraGlo® luciferase was added to the wells. Luminescence was detected on a GloMax® Multi+ luminometer (Promega).
FIGS. 4A and 4B show the effects of esterase on PBI-5045.

## CC(C)C[C@H](N)C(=O)Nc1ccc2c(ccc3nc(C4=NC(C(=O)O)CS4)sc32)c1 (stereo partly drawn) [PBI-5044, 2-(7-(Leucinyl)aminonaphtho[2,1-d]thiazol-2-yl)-4,5-dihydrothiazole-4-carboxylic acid]
[1]
  separation of bioluminescence from luciferin by filters (multiplexing): luminescence from each detected with little interference from the other
[2]
  bioluminescent response as a function of added aminopeptidase (reporting protease activity): successful use in reporting protease activity

## COC(=O)C1CSC(c2nc3ccc4cc(O)ccc4c3s2)=N1 (stereo not drawn) [PBI-5045, 2-(7-Hydroxynaphtho[2,1-d]thiazol-2-yl)-4,5-dihydrothiazole-4-carboxylic acid methyl ester]
[3]
  luminescence in presence of esterase (reporting esterase activity): successful use in reporting esterase activity
